One series has as its system human H1299 or PC9 cells. Put plainly: Xenograft tumor model. The format is in vivo, BALB/c nude mice. Here is the method:
Mice (n=6) were injected intraperitoneally with TST dissolved in DMSO at a dose of 17 mg/kg every 2 days before euthanasia and sacrifice. Tumor volume and body weight of the mice were measured every other day. […] Two days after the final TST injection, all mice were sacrificed, and tumor tissues were collected for immunohistochemical (IHC) staining of FOXM1 and PD-L1. The tissues were fixed in 10% neutralized formaldehyde and embedded in paraffin blocks. Tissue microarray (TMA) slides were made with a 4 mm diameter per sample and sectioned at 4 μm thickness to perform IHC with anti-FOXM1 (#20459S) or anti-PD-L1 (#13684S) (Cell Signaling Technology) antibodies. Autostainer Link48 (Dako, Agilent Technologies, Santa Clara, CA, USA) was used for analysis.
IHC staining was performed using anti-rabbit-HRP antibodies (K4003, EnVision+ HRP Labelled Polymer Anti-Rabbit, Dako, Agilent Technologies, Carpinteria, CA, USA) and 3,3′-diaminobenzidine (DAB) (K3468, DAB+ Chromogen, Dako, Agilent Technologies, Santa Clara, CA, USA) as substrates, and the sections were counterstained with hematoxylin (K8008, EnVision FLEX Hematoxylin, Dako, Agilent Technologies Singapore, Singapore). To analyze the in vivo toxicity of the tested drugs, four xenograft mice from each group were used for serum biochemical analysis (Table 2). On day 9, serum samples were collected from the mice in the control and TST-treated groups. In addition, the vital organs (liver, spleen, and kidney) were collected form mice, sectioned, and stained with H&E to monitor histopathological changes.
To investigate the effect of TST, which is a FOXM1 inhibitor, on tumor growth and PD-L1 expression in vivo, human H1299 or PC9 cells (5×10^6) were subcutaneously implanted into BALB/c nude mice (n=6 per group). When the average size of the xenografted tumor masses reached approximately 170 mm^3, TST was injected intraperitoneally into the mice at a dose of 17 mg/kg four times every 2 days (FIG. 7a). […] 2 days after the final TST treatment, the mice were sacrificed. […]

For series [1] the following is noted: cited from earlier work.
Series [2] has as its system c-MYC, cyclin B1, cyclin E1, and cyclin D1. Put plainly: Western blot of c-MYC and cyclins in H1299 and PC9 cells. The format is cell-based, human. Particulars: both cell lines. Here is the method: Cells were lysed in RIPA buffer supplemented with complete mini protease inhibitor cocktail (#04693124001; Roche, Basel, Switzerland) and kept on ice for 30 minutes. Equal amounts of protein were evenly loaded and analyzed by sodium dodecyl sulfate-polyacrylamide gel electrophoresis (SDS-PAGE), and transferred to polyvinylidene difluoride (PVDF) membranes (#IPVH 00010; Millipore, Billerica, MA, USA) at 100 V for 1 hour. Primary antibodies (Santa Cruz Biotechnology, Texas, USA) specific for FOXM1 (#sc-271746), cyclin E1 (#sc-481), α-tubulin (#sc-8035), and β-actin (#sc-47778); PD-L1 (#13684S), cyclin D1 (#2978S), cyclin B1 (#4138S), c-MYC (#5605S), and poly(ADP-ribose) polymerase (PARP, #9542S; Cell Signaling Technology, Beverly, MA, USA) were used to probe proteins of interest. A horseradish-peroxidase-conjugated secondary antibodies specific to the primary antibody was used to detect proteins using pico-enhanced chemiluminescence substrate (#34577; Thermo Fisher Scientific).

In the next series the test system is H1299 and PC9 cells. Put plainly: Apoptotic cell death assay (Annexin V/PI staining). The format is cell-based, human. Particulars: 5 μM TST or siFOXM1. Here is the method:
H1299 and PC9 cells (1×10^5) were cultured in 6-well plates, transfected with siFOXM1 or NC siRNA or treated with 5 μM TST or dimethyl sulfoxide (DMSO), and then stained using fluorescein isothiocyanate (FITC) Annexin V Apoptosis Detection Kit I (#556547; BD Biosciences). Cells were analyzed within 1 hour to reduce side effects due to staining, and flow cytometry was performed using a FACSVerse cell analyzer (BD Biosciences).

As for thiostrepton [TST], the “FOXM1 and PD-L1 expression in tumors (immunohistochemical analysis)” value in the series on human H1299 or PC9 cells (2 days after final TST treatment, vs control mice) was “significantly downregulated”. Moreover, the tumor volume result with human H1299 or PC9 cells (TST 17 mg/kg intraperitoneally four times every 2 days, vs control group) was “significant decrease in tumor volume”. In addition, the body weight result in the series on human H1299 or PC9 cells (after 9 days, TST vs control) was “no difference in body weight”. The solubility in water result in series [1] is “low solubility in water”. Also, the “protein levels of c-MYC, cyclin B1, and cyclin D1” value in series [2] was “significantly decreased”. Also, the “apoptotic cell population (annexin V/PI positive cells)” value in the series with H1299 and PC9 cells was “significantly increased in a time-dependent manner”.
